Assay results taken from the supplement of paper PMC4858399.
Structures can show the parent of a compound that is named as a salt.

Key:
[1] = test system: Caenorhabditis elegans N2; test: lowest effective concentration for larval growth inhibition (size below effect threshold); higher = less potent; conditions: exposure time 48 h
Summary of the method: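 Each well of a 96-well plate received 50 C. elegans N2 L1 larvae, which grew for 48 h at 20°C in K-medium containing killed bacteria, 1% DMSO and the chemical at 0.5, 1, 5, 10, 50, 100 or 200 µM. A Biosort recorded the extinction of every worm as its size, and these readings were log-transformed and averaged per well. The lowest effective concentration is defined as the first dose at which the plate-adjusted mean size falls below the threshold and stays below it at all higher doses; that threshold is 5.665.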

[2] = test system: Caenorhabditis elegans N2; test: mean nematode size ln(EXT) after 48 h, plate-adjusted (DMSO control set to 6) (ln(EXT), control-adjusted); higher = larger nematodes / less growth inhibition; conditions: exposure time 48 h
Summary of the method: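 A growth model removed debris from Biosort extinction readings taken on each worm. These worms were synchronised C. elegans N2 L1 larvae, 50 per well in 4–6 wells per treatment, grown for 48 h at 20°C in K-medium with killed OP50, 1% DMSO and 0.5–200 µM chemical. Readings were natural-logged and averaged by well to give mean size. On each plate, the vehicle control mean was subtracted and 6 was added.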

Row | Structure (SMILES) | lowest effective concentration [1] | mean nematode size ln(EXT) (ln) ([2]; 0.5 µM) | mean nematode size ln(EXT) (ln) ([2]; 1 µM) | mean nematode size ln(EXT) (ln) ([2]; 5 µM) | mean nematode size ln(EXT) (ln) ([2]; 10 µM) | mean nematode size ln(EXT) (ln) ([2]; 50 µM) | mean nematode size ln(EXT) (ln) ([2]; 100 µM) | mean nematode size ln(EXT) (ln) ([2]; 200 µM)
1 | O=C(OCCCCCCOC(=O)c1ccccc1)c1ccccc1 [1,6-Hexanediol dibenzoate] | 50 µM | 5.83 | 5.82 | 5.69 | 5.68 | 5.63 | 5.49 | 5.57
2 | Oc1ccc2ccccc2c1N=Nc1ccccc1 [Sudan I] | > 200 µM | 5.91 | 5.88 | 5.87 | 5.83 | 5.7 | 5.77 | 5.68
3 | ClC1C(Cl)C(Cl)C(Cl)C(Cl)C1Cl (stereo not drawn) [beta-1,2,3,4,5,6-Hexachlorocyclohexane] | > 200 µM | 5.52 | 5.63 | 5.65 | 5.7 | 5.74 | 5.75 | 5.87
4 | CC(C)(C)OOC(=O)c1ccccc1 [tert-Butyl perbenzoate] | > 200 µM | 6.05 | 6.11 | 6.1 | 6.03 | 6 | 6.09 | 5.87
5 | CN1CCCC1=O [N-Methyl-2-pyrrolidone] | > 200 µM | 5.94 | 5.92 | 5.89 | 5.81 | 5.8 | 5.89 | 5.84
6 | Cc1ccc(O)cc1 [4-Methylphenol] | > 200 µM | 5.84 | 5.98 | 5.92 | 5.87 | 5.96 | 5.8 | 5.83
7 | Clc1ccccc1-c1nnc(-c2ccccc2Cl)nn1 [Clofentezine] | > 200 µM | 6.25 | 6.03 | 6.11 | 5.96 | 5.86 | 5.98 | 5.73
8 | C=CN1CCCC1=O [N-Vinyl-2-pyrrolidone] | > 200 µM | 6.07 | 5.85 | 5.84 | 5.87 | 5.89 | 4.87 | 5.82
9 | COCc1nnc(-c2ccc[n+]([O-])c2)n1-c1c(Cl)c(Cl)cc2[nH]c(=O)c(=O)[nH]c12 | > 200 µM | 5.89 | 6.15 | 6.22 | 6.24 | 6.17 | 6.08 | 5.67
10 | CCCOC(=O)NCCCN(C)C [Propamocarb hydrochloride] | > 200 µM | 5.84 | 5.93 | 5.9 | 5.93 | 6.01 | 5.91 | 5.89
11 | CNC(=O)CSP(=S)(OC)OC [Dimethoate] | > 200 µM | 6.23 | 6.15 | 6.18 | 6.23 | 6.24 | 6.21 | 5.95
12 | CCOCN(C(=O)CCl)c1c(C)cccc1CC [Acetochlor] | > 200 µM | 6.04 | 6 | 6.11 | 6.25 | 6.04 | 6.05 | 6.15
13 | CC(=O)Oc1ccccc1C(=O)O [Aspirin] | > 200 µM | 5.74 | 5.85 | 5.81 | 6.1 | 5.89 | 5.89 | 5.71
14 | COc1cccc([C@H](O)C2CCN(CCc3ccc(F)cc3)CC2)c1OC [Volinanserin] | > 200 µM | 5.67 | 5.79 | 5.78 | 5.95 | 5.83 | 5.8 | 5.78
15 | Cc1cccc(C)c1N [2,6-Dimethylaniline] | > 200 µM | 5.87 | 6.07 | 6.05 | 5.98 | 6 | 5.83 | 5.84
16 | CCCCCC(=O)O [Hexanoic acid] | > 200 µM | 5.99 | 5.88 | 5.83 | 5.84 | 5.83 | 5.87 | 5.79
17 | COCCO [Methyl cellusolve] | > 200 µM | 5.86 | 5.94 | 6.08 | 6.07 | 5.99 | 6.03 | 6.06
18 | C[C@H](O)CCO [1,3-Butanediol] | > 200 µM | 5.92 | 5.9 | 5.88 | 6.01 | 6 | 6.02 | 5.74
19 | Cc1nc(C)nc(N2C[C@@H](C)N(c3ccnc([C@@H](C)O)n3)[C@@H](C)C2)n1 | > 200 µM | 5.83 | 5.77 | 5.75 | 5.69 | 5.71 | 5.7 | 5.85
20 | CCCCC(CC)COC(=O)CCCCCCCC(=O)OCC(CC)CCCC (configuration not stated) [Azelaic acid di(2-ethylhexyl) ester] | > 200 µM | 5.73 | 5.62 | 5.69 | 5.67 | 5.23 | 5.44 | 5.67
21 | Cc1ccc([N+](=O)[O-])cc1 [4-Nitrotoluene] | > 200 µM | 5.99 | 5.92 | 5.98 | 5.85 | 5.94 | 5.95 | 5.77
22 | CCCCCCCC=O [Octanal] | > 200 µM | 6 | 5.82 | 5.94 | 5.77 | 5.88 | 5.84 | 5.77
23 | COCC(=O)N(c1c(C)cccc1C)C(C)C(=O)OC (configuration not stated) [Metalaxyl] | > 200 µM | 6.15 | 6.19 | 6.16 | 6 | 6.14 | 6.18 | 5.98
24 | C/C=C/C=C/C(=O)O [Sorbic acid] | > 200 µM | 5.84 | 5.83 | 5.82 | 5.95 | 5.89 | 5.86 | 5.7
25 | CC1=C(/C=C/C(C)=C/C=C/C(C)=C/CO)C(C)(C)CCC1 [Retinol] | > 200 µM | 5.92 | 5.89 | 5.91 | 5.75 | 5.9 | 5.84 | 5.68
26 | CCCCOCCOCCO [2-(2-Butoxyethoxy)ethanol] | > 200 µM | 5.78 | 6 | 6.21 | 5.86 | 5.95 | 5.74 | 5.96
27 | Cc1ccc(S(=O)(=O)NC(=O)NN2CCCCCC2)cc1 [Tolazamide] | > 200 µM | 5.93 | 5.92 | 5.93 | 5.91 | 5.61 | 5.87 | 5.79

Row | Structure (SMILES) | lowest effective concentration [1] | mean nematode size ln(EXT) (ln) ([2]; 0.5 µM) | mean nematode size ln(EXT) (ln) ([2]; 1 µM) | mean nematode size ln(EXT) (ln) ([2]; 5 µM) | mean nematode size ln(EXT) (ln) ([2]; 10 µM) | mean nematode size ln(EXT) (ln) ([2]; 50 µM) | mean nematode size ln(EXT) (ln) ([2]; 100 µM) | mean nematode size ln(EXT) (ln) ([2]; 200 µM)
28 | O=[N+]([O-])c1ccc(O)cc1 [4-Nitrophenol] | > 200 µM | 5.92 | 5.82 | 5.87 | 5.69 | 5.89 | 5.8 | 5.8
29 | CCC(C)=NO [2-Butanone oxime] | > 200 µM | 5.68 | 5.89 | 6.05 | 5.8 | 5.82 | 5.68 | 6.2
30 | COP(=O)(NC(C)=O)SC (configuration not stated) [Acephate] | > 200 µM | 5.69 | 5.74 | 5.76 | 5.69 | 5.85 | 5.77 | 5.99
31 | CCNc1nc(Cl)nc(NCC)n1 [Simazine] | > 200 µM | 6.2 | 6.08 | 6.12 | 6.13 | 6.17 | 6.19 | 5.77
32 | Nc1ccc(-c2ccc(N)cc2)cc1 [Benzidine] | > 200 µM | 6.06 | 6.02 | 5.91 | 5.98 | 5.81 | 5.75 | 5.97
33 | Cc1cccc(Nc2cc(Cl)nc(SCC(=O)O)n2)c1C [Pirinixic acid] | > 200 µM | 6.05 | 5.95 | 5.99 | 5.97 | 5.94 | 5.77 | 5.93
34 | C[N+]1(C)CCCCC1 [Mepiquat chloride] | > 200 µM | 5.73 | 5.8 | 6 | 5.91 | 5.96 | 6.13 | 5.9
35 | C/C=C\c1ccc(O)c(OC)c1 [Isoeugenol] | > 200 µM | 5.87 | 5.92 | 5.95 | 6.01 | 5.87 | 5.85 | 5.88
36 | Cc1cc(Cc2ccc(N)c(C)c2)ccc1N [4,4'-Methylene bis(2-methylaniline)] | > 200 µM | 5.83 | 5.82 | 5.8 | 5.78 | 5.79 | 5.83 | 5.71
37 | COc1ccc(-c2ccccc2)cc1NNC(=O)OC(C)C [Bifenazate] | > 200 µM | 5.62 | 5.82 | 5.8 | 5.93 | 5.25 | 5.68 | 5.87
38 | OCC(CO)n1cnc(-c2ccc(F)cc2)c1-c1ccnc(Oc2ccccc2)n1 | > 200 µM | 6.02 | 5.98 | 5.97 | 6.03 | 6.04 | 5.98 | 5.82
39 | O=C1CCC(N2C(=O)c3ccccc3C2=O)C(=O)N1 (configuration not stated) [Thalidomide] | > 200 µM | 5.98 | 5.95 | 5.98 | 5.97 | 5.97 | 5.85 | 5.97
40 | COc1ccccc1N [2-Anisidine] | > 200 µM | 5.76 | 5.78 | 5.84 | 5.82 | 5.83 | 5.81 | 5.78
41 | CCCCC(CC)COC(=O)CCCCC(=O)OCc1ccccc1 (configuration not stated) [Benzyloctyl adipate (BOA)] | > 200 µM | 5.99 | 5.97 | 6.03 | 6.02 | 5.92 | 5.77 | 5.89
42 | CC(=O)OCCC(C)C [Isoamyl acetate] | > 200 µM | 5.95 | 5.84 | 5.89 | 5.79 | 5.86 | 5.83 | 5.75
43 | Cc1ccc(N)cc1 [4-Methyl-benzeneamine] | > 200 µM | 5.89 | 5.85 | 5.89 | 5.88 | 5.79 | 5.85 | 5.71
44 | Oc1ccccc1 [Phenol] | > 200 µM | 6.09 | 5.98 | 6.01 | 5.98 | 5.94 | 5.92 | 6.02
45 | CN(C)C(=O)NC1(c2ccccc2)CCN(CCCC2(c3ccc(Cl)c(Cl)c3)CCCN(C(=O)c3ccccc3)C2)CC1 (stereo in doubt) | 50 µM | 5.96 | 5.67 | 5.69 | 5.74 | 5.62 | 5.35 | 5.63
46 | CCn1nc(Cc2ccccc2)cc1C1CCN(C[C@H]2C[C@H](N(C)[C@@H](C(=O)O)C(C)C)C[C@@H]2c2cccc(F)c2)CC1 | > 200 µM | 5.93 | 5.9 | 5.91 | 5.93 | 5.92 | 5.83 | 5.73
47 | CC(=O)OCCOCCOCCOC(C)=O [Triethylene Glycol Diacetate] | > 200 µM | 5.82 | 5.87 | 5.88 | 5.91 | 5.83 | 5.96 | 5.82
48 | CN(C)C(=S)S [Sodium dimethyldithiocarbamate] | > 200 µM | 5.93 | 5.79 | 5.88 | 5.82 | 5.85 | 5.81 | 5.69
49 | O=P(O)(O)CCCl [Ethephon] | > 200 µM | 5.96 | 5.93 | 5.97 | 5.94 | 6.03 | 6.05 | 5.88
50 | O=P(OCCCl)(OCCCl)OCCCl [Tris(2-chloroethyl) phosphate] | > 200 µM | 5.87 | 5.82 | 5.89 | 5.86 | 5.86 | 5.87 | 5.77
51 | C[N+](C)(C)CC1CO1 (configuration not stated) [Oxiranemethanaminium, N,N,N-trimethyl-, chloride] | 200 µM | 5.78 | 5.84 | 5.81 | 5.54 | 5.83 | 5.84 | 5.66
52 | CC1(C)CON(Cc2ccccc2Cl)C1=O [Clomazone] | > 200 µM | 6.09 | 6.23 | 6.29 | 6.06 | 6.2 | 6.07 | 5.68
53 | c1ccc(C2CO2)cc1 (configuration not stated) [Styrene oxide] | > 200 µM | 6.05 | 6.04 | 6.03 | 6.01 | 6.03 | 6.03 | 5.89
54 | Cc1ccc(C)c(O)c1 [2,5-Dimethylphenol] | > 200 µM | 5.86 | 5.95 | 5.74 | 5.83 | 5.95 | 5.83 | 5.72
